According to patent US20110039763A1, “TARGETED ANTIMICROBIAL MOIETIES” (C3 JIAN, INC., priority 2009, published 2011):
Entries after “also recorded” stand apart in the source; their conditions may differ.

The substances below were run on microorganisms (assay: Targeting peptide binding to target microorganisms (Tables 3, 10, 12)). Settings: microorganism(s) the targeting peptide binds; binding in aqueous buffers varied with peptide solubility, preferably 1x PBS.

Row | Substance | Target(s)
1 | PF-352 (RVKKIG; Peptide with targeting and/or antimicrobial activity) | C. jeikeium
2 | PF-359 (MTVMEDPGSEQRNKIQSPMKGEDFSALFGR; Peptide with targeting and/or antimicrobial activity) | S. epidermidis and B. fragilis and P. aeruginosa and C. albicans and MRSA and E. faecalis and C. jeikeium
3 | PF-361 (NQVTEGIRLLVE; Peptide with targeting and/or antimicrobial activity) | S. epidermidis; also recorded: E. coli; also recorded: E. faecalis; also recorded: C. jejuni
4 | PF-364 (LVNGIKI; Peptide with targeting and/or antimicrobial activity) | S. epidermidis; also recorded: B. fragilis; also recorded: P. aeruginosa; also recorded: C. jeikeium; also recorded: C. jejuni
5 | PF-365 (LYKQKIQLEEELEKLKDDRQ; Peptide with targeting and/or antimicrobial activity) | S. epidermidis; also recorded: B. subtilis; also recorded: B. fragilis; also recorded: P. aeruginosa; also recorded: C. albicans
6 | PF-367 (TKTPGTFTPGTGIQKTAVPL; Peptide with targeting and/or antimicrobial activity) | B. subtilis
7 | PF-368 (MLKQTA; Peptide with targeting and/or antimicrobial activity) | C. jeikeium; also recorded: C. jejuni
8 | PF-371 (TFIYNEF; Peptide with targeting and/or antimicrobial activity) | S. epidermidis; also recorded: B. fragilis; also recorded: C. jejuni
9 | PF-372 (KKQDKRIEDKYKRMKKGD; Peptide with targeting and/or antimicrobial activity) | C. jeikeium; also recorded: C. jejuni
10 | PF-384 (HISKERFEAY; Peptide with targeting and/or antimicrobial activity) | E. faecalis; also recorded: C. jeikeium; also recorded: C. jejuni
11 | PF-388 (ITPLLDEIGKVCIDKISK; Peptide with targeting and/or antimicrobial activity) | E. faecalis; also recorded: C. jeikeium; also recorded: C. jejuni
12 | PF-400 (VIAWKFRNKFENSGV; Peptide with targeting and/or antimicrobial activity) | S. epidermidis; also recorded: E. coli; also recorded: S. pneumoniae; also recorded: E. faecalis; also recorded: C. jeikeium
13 | PF-402 (FIDVLKSKINEFLN; Peptide with targeting and/or antimicrobial activity) | S. epidermidis; also recorded: P. aeruginosa; also recorded: E. faecalis; also recorded: C. jejuni
14 | PF-409 (DLVQSILSEFKKSG; Peptide with targeting and/or antimicrobial activity) | S. epidermidis and MRSA and C. jeikeium and C. jejuni
15 | PF-412 (TSGWLGQLEQ; Peptide with targeting and/or antimicrobial activity) | M. luteus; also recorded: E. coli; also recorded: C. albicans; also recorded: C. jeikeium; also recorded: C. jejuni
16 | PF-435 (MSRWDGHSDKGEAPAGKPPMHGFGLNGENK; Peptide with targeting and/or antimicrobial activity) | C. jeikeium
17 | PF-436 (KKHVLVGKQEKNG; Peptide with targeting and/or antimicrobial activity) | C. jeikeium
18 | PF-438 (QPYFQNQFKKITGYTPLQYRKEKR; Peptide with targeting and/or antimicrobial activity) | S. epidermidis; also recorded: E. coli; also recorded: S. pneumoniae; also recorded: C. jeikeium; also recorded: C. jejuni
19 | PF-441 (TQVHKMARGIDPGPANGIYR; Peptide with targeting and/or antimicrobial activity) | C. jeikeium
20 | PF-463 (MVILVFSLIFIFTDNYLVYQSKSIKEDVMI; Peptide with targeting and/or antimicrobial activity) | S. epidermidis; also recorded: E. coli; also recorded: P. aeruginosa; also recorded: C. albicans; also recorded: S. pneumoniae; also recorded: E. faecalis; also recorded: M. smegmatis
21 | PF-481 (DELYEIMDKVIEEFNKDIEQNNNNGNNEDLTENKIN; Peptide with targeting and/or antimicrobial activity) | C. jeikeium
22 | PF-483 (EDNKDKKDKKDK; Peptide with targeting and/or antimicrobial activity) | P. mirabilis; also recorded: C. jeikeium; also recorded: C. jejuni
23 | PF-486 (MQKEGEEDY; Peptide with targeting and/or antimicrobial activity) | S. mutans
24 | PF-487 (MYKAIAVLAMTIMAFFIFVYPFFIVGLILG; Peptide with targeting and/or antimicrobial activity) | S. mutans; also recorded: E. coli
25 | PF-488 (YPNEQGHHKNNLKNIIIE; Peptide with targeting and/or antimicrobial activity) | S. mutans; also recorded: E. coli
26 | PF-489 (KVDRVSTTITEKIK; Peptide with targeting and/or antimicrobial activity) | S. mutans
27 | PF-490 (RLILVSGNATVQK; Peptide with targeting and/or antimicrobial activity) | S. mutans; also recorded: E. coli
28 | PF-491 (IHQYSSKPDIVGQEAKTVQQINS; Peptide with targeting and/or antimicrobial activity) | S. mutans; also recorded: E. coli

Row | Substance | Target(s)
29 | PF-492 (IQIDAASFYSISKSTIK; Peptide with targeting and/or antimicrobial activity) | S. mutans; also recorded: B. subtilis; also recorded: E. coli
30 | PF-493 (PGAFFFCRGRGCWCGIGW; Peptide with targeting and/or antimicrobial activity) | S. mutans; also recorded: B. subtilis; also recorded: E. coli
31 | PF-494 (FTEPLRPLQAKGQIISIKPSTSSS; Peptide with targeting and/or antimicrobial activity) | S. mutans
32 | PF-495 (KGIYKKRTY; Peptide with targeting and/or antimicrobial activity) | S. mutans; also recorded: E. coli
33 | PF-496 (EVTKRLVALAQQQLRG; Peptide with targeting and/or antimicrobial activity) | S. mutans; also recorded: E. coli
34 | PF-498 (MSEEEEVSEKVYNYLRRNEFFEVRKEEFSA; Peptide with targeting and/or antimicrobial activity) | S. mutans; also recorded: E. coli
35 | PF-500 (MGIFKEEKIKFIDCKGEEVILKIKIKDIKK; Peptide with targeting and/or antimicrobial activity) | S. mutans; also recorded: E. coli
36 | PF-501 (GSTAHKSPIGSTNNQWGMKKTPTD; Peptide with targeting and/or antimicrobial activity) | S. mutans
37 | PF-502 (NKGKQMQDQTGKQPIVDNG; Peptide with targeting and/or antimicrobial activity) | S. mutans
38 | PF-503 (VVTLKDIVAVIEDQGYDVQ; Peptide with targeting and/or antimicrobial activity) | S. mutans
39 | PF-504 (ILSVELSTKTSASGS; Peptide with targeting and/or antimicrobial activity) | S. mutans; also recorded: E. coli
40 | PF-505 (GYTKDPGTGI; Peptide with targeting and/or antimicrobial activity) | S. mutans
41 | PF-506 (SGRGFALIVVLFILLIIVGAACIR; Peptide with targeting and/or antimicrobial activity) | S. mutans; also recorded: E. coli
42 | PF-507 (LALSIANLFKKKA; Peptide with targeting and/or antimicrobial activity) | S. mutans; also recorded: E. coli
43 | PF-508 (VSTFGKVVKVVDEK; Peptide with targeting and/or antimicrobial activity) | S. mutans
44 | PF-509 (EAKVQAKGEQIACNNY; Peptide with targeting and/or antimicrobial activity) | S. mutans; also recorded: B. subtilis; also recorded: E. coli
45 | PF-510 (WYLYKKQSNQNDRGIPK; Peptide with targeting and/or antimicrobial activity) | S. mutans; also recorded: E. coli
46 | PF-568 (TQAVQVKTAQAQQQ; Peptide with targeting and/or antimicrobial activity) | S. epidermidis
47 | PF-570 (KKFPTEESHIQAVLEFKKLTEHPSG; Peptide with targeting and/or antimicrobial activity) | S. pneumoniae; also recorded: C. jeikeium
48 | PF-641 (SWKCHHLAIGGSWKCHHLAI; Peptide with targeting and/or antimicrobial activity) | S. epidermidis and M. luteus and E. coli and C. albicans and MRSA and E. faecalis and C. jeikeium and C. jejuni
49 | PF-648 (ARRYPAAGS; Peptide with targeting and/or antimicrobial activity) | S. mutans; also recorded: E. coli
50 | PF-650 (IRSDQPGRQSRSSPRWPTGAGRHR; Peptide with targeting and/or antimicrobial activity) | Mycobacteria spp
51 | PF-669 (RADRIESYPADGDRVITLWRNPYR; Peptide with targeting and/or antimicrobial activity) | Mycobacteria spp
52 | PF-671 (TVSAFRTVH; Peptide with targeting and/or antimicrobial activity) | S. mutans; also recorded: E. coli
53 | PF-673 (VRRLRM; Peptide with targeting and/or antimicrobial activity) | S. mutans; also recorded: E. coli
54 | PF-674 (DGCDSEPALTYR; Peptide with targeting and/or antimicrobial activity) | S. mutans; also recorded: E. coli
55 | PF-676 (AEYRGL; Peptide with targeting and/or antimicrobial activity) | S. mutans; also recorded: E. coli
